# Measured values: patent US20230030847A1, “ANTI-MICROBIAL SULFONAMIDE PHARMACEUTICAL COMPOSITIONS FOR EXTERNAL USE” (priority 2021, published 2023)
# Experiments:
# Candida auris = assay: impregnated test swatch kill test; type: cell-based; conditions: stack of four swatches impregnated with 2.5% BENZ; within 1 hour
# Aspergillus brasiliensis = assay: impregnated test swatch kill test; type: cell-based; conditions: swatches impregnated with 2.5% BENZ; within 1 hour
# Experimental: (§1) Test swatches which had been impregnated with 2.5% BENZ were exposed to Staphylococcus aureus, Pseudomonas aeruginosa, and Aspergillus brasiliensis. A stack of two swatches was placed in a petri dish and then inoculated with 1.000 mL of an inoculum for one of the microorganisms. Following inoculation, the petri dishes were sealed and placed in a plastic bag/container, then incubated at optimal conditions for the given microorganism. Swatches were harvested at 0, 10 minutes, 30 minutes, 1 hour, and 6 hours after inoculation. At harvesting, the swatch was transferred to a neutralization media, then vortex mixed for 1-2 minutes. The neutralization suspension was […] and plated for 18-24 hours for bacteria and 24-72 hours for fungi at optimal incubation conditions.
# Pseudomonas aeruginosa = assay: impregnated test swatch kill test; type: cell-based; conditions: swatches impregnated with 2.5% BENZ; within 10 minutes
# Experimental: as §1
# Staphylococcus aureus = assay: impregnated test swatch kill test; type: cell-based; conditions: swatches impregnated with 2.5% BENZ; within 30 minutes
# Experimental: as §1
# rats = assay: single-dose oral gavage toxicity in rats; type: in vivo; conditions: single gavage dose of liquid containing 20% BENZ, 5 g/kg body weight
# Description: Five rats (Rattus norvegicus) weighing 244 to 272 grams were gavaged with a single dose of liquid containing 20% N-chloro-4-carboxybenzenesulfonamide (BENZ) at a dosage of 5 g/kg body weight.
# bovine corneas = assay: bovine corneal opacity and permeability (BCOP) test for ocular irritation; conditions: 0.75 mL of 20% BENZ solution, 10 minutes exposure, three bovine corneas
# Experimental: A bovine corneal opacity and permeability (BCOP) test was performed to determine the potential for ocular irritation.
# Each dissected cornea was mounted in a holder that separated into anterior and posterior chambers. The two chambers were filled with a MEM solution, and an opacitometer was used to measure the opacity of the cornea. Next, the MEM solution was removed from the anterior chamber, and the epithelium of three bovine corneas were exposed to 0.75 mL of a 20% BENZ solution for 10 minutes in a manner that covered the entire cornea. The two chambers were then rinsed and refilled with fresh MEM solution. The corneas were then incubated at 32° C. for two hours, and the two chambers were again rinsed and refilled with fresh MEM solution. The opacity was measured again. The MEM solution was then removed from the anterior chamber and the anterior chamber was filled with 1.0 mL of 0.4% sodium fluorescein in Dulbecco's phosphate-buffered saline. After 90 minutes, the fluid in the posterior chamber was removed and the amount of dye that passed through the cornea was measured as the optical density at 490 nm by spectrophotometer. The In Vitro Irritancy Score (IVIS) was calculated to be −0.67, which is a perfect score.
# [1] = stability study of BENZ solution; type: physicochemical
# Experimental: A stability study was conducted. A BENZ solution was stored for 14 days at 54° C. At Day 0, the samples contained an average of 20.26% BENZ. At Day 14, the samples contained an average of 19.97% BENZ.
# [2] = system: Influenza A virus, A/PR/8/34 strain, ATCC VR-1469; type: cell-based; conditions: filter medium impregnated with 2.5% BENZ; similar experiment (contact time 30 minutes)
# [3] = system: Rhinovirus 37, 151-1 strain, ATCC VR-1607; assay: impregnated filter medium virucidal test (TCID50 in MRC-5 cells); type: cell-based; conditions: filter medium impregnated with 2.5% BENZ; contact time 30 minutes, 24.7-24.9° C., 39.9-40.5% relative humidity
# Experimental: Next, a filter medium impregnated with 2.5% BENZ was exposed to a 0.200 mL volume of Rhinovirus 37, 151-1 strain, ATCC VR-1607 for a contact time of 30 minutes at 24.7-24.9° C. and 39.9-40.5% relative humidity. After 30 minutes, the filter medium was transferred to a neutralization medium and vortexed for at least 15 seconds. A 0.1 mL aliquot was removed and a series of 10-fold dilutions was performed in 0.9 mL aliquots of test medium. Each dilution was inoculated into MRC-5 cells. Viral titer was then calculated.
# skin of rabbits = assay: primary skin irritation according to ISO 10993-10, Part 10; type: in vivo, rabbit; conditions: abraded skin, gauze patches treated with 20% BENZ for 24 hours, observed 1, 24, 48 and 72 hours after patch removal
# Experimental: Next, three rabbits were used for evaluation of primary skin irritation according to ISO 10993-10, Part 10. Two wet gauze patches (25 mm×25 mm) treated with 20% BENZ were applied to the skin of each rabbit in different locations. Each application site was abraded with four parallel epidermal abrasions prior to application of the treated gauze patch. The treated gauze was secured in place for 24 hours, then removed. The skin was then observed for erythema and edema at 1, 24, 48, and 72 hours after patch removal.
# skin of guinea pigs = conditions: guinea pig, in vivo
# Experimental: Next, 10 guinea pigs were used to test for delayed dermal contact sensitization according to ISO 10993-10, Part 10. A wet gauze patch (25 mm×25 mm) treated with 20% BENZ was applied to the intact skin of each guinea pick for six hours (±30 minutes), three times a week, over a three-week period for a total of nine applications. After a two-week recovery period, the gauze patch was applied again. The skin was then observed for evidence of dermal reaction at 24 and 48 hours after patch removal. […] This test was performed a total of three times with different guinea pigs, and the same results were obtained each time.
structure (smiles),measurement,setting,value
"O=C(O)c1ccc(S(=O)(=O)NCl)cc1 [BENZ, N-chloro-4-carboxybenzenesulfonamide]",kill,Candida auris,99.998%
same,kill,Aspergillus brasiliensis,99.9%
same,kill,Pseudomonas aeruginosa,99.999%
same,kill,Staphylococcus aureus,99.999%
same,survival after seven days,rats,all five rats were still alive
same,In Vitro Irritancy Score (IVIS),bovine corneas,−0.67
same,average BENZ content of samples,"[1]; Day 0, BENZ solution",20.26%
same,average BENZ content of samples,"[1]; Day 14, stored at 54° C.",19.97%
same,reduction in viral titer,[2],> 100%
same,reduction in viral titer,[3],> 99.997%
same,erythema and edema,skin of rabbits,no erythema or edema observed
same,delayed dermal contact sensitization,skin of guinea pigs,No evidence was found of delayed dermal contact sensitization
